Measurements from patent US6335350B1, “Acetamide and substituted acetamide-containing thiourea inhibitors of herpes viruses” (American Home Products Corporation, priority 1998, dated 2002).
Converted amounts (≈) assume the structure as drawn.

Experiments:
HSV-1 = experiment: HSV Antiviral (ELISA) Assay; assay type: cell-based, herpes simplex virus type 1; details: Vero cells, HSV-1; for IC50: Human alphaherpesvirus 1, Vero, read-out: IC50 Ug/ml HSV
Description: Vero cells (ATCC #CCL-81) are plated on 96-well tissue culture plates at 3.5×10^4 cells per 100 μl tissue culture DMEM (Dulbecco's modified Eagle media) supplemented with 2% fetal bovine serum (FBS) in each well. After overnight incubation @ 37° C. (in 5% CO2) and 30 minutes prior to infection with HSV-1 (multiplicity of infection equal to 0.006), cells are either untreated, or treated with test compound (multiple concentrations) or reference standard drug control. After approximately 24 hours post-infection incubation @ 37° C. (in 5% CO2), cells are fixed for ELISA assay. The primary antibody is murine anti-HSV glycoprotein D monoclonal primary antibody and the secondary antibody is goat anti-mouse IgG linked to β-galactosidase. Thus the extent of viral replication is determined by assessing β-galactosidase activity by quantifying the generation of the 4-methyl umbelliferone fluorescent cleavage product after addition of the methyl umbelliferyl-β-D-galactoside (Sigma #M1633) substrate on a microfluorimeter (365 nm for excitation and 450 nm for emission). Antiviral activity (IC50) of the test compound is determined by comparing the flourescence obtained in absence of compound to that obtained in the presence of compound.

VZV strain Ellen = experiment: VZV Antiviral (ELISA) Assay; assay type: cell-based, varicella-zoster virus; details: human foreskin fibroblast cells; for IC50 / inhibition at 10 µg/mL: Human alphaherpesvirus 3, Fibroblast; for IC50: read-out: IC50 Ug/ml VZV; for inhibition at 10 µg/mL: read-out: % inhibition 10 ug/ml VZV, 10 ug/ml
Description: For the generation of stock VZV to be used in the assay, VZV strain Ellen (ATCC #VR-1367) is used to infect human foreskin fibroblast (HFF) cells at low multiplicity (less than 0.1) and incubated overnight at 37° C. in 5% CO2. After the overnight incubation, the mixture of uninfected and VZV-infected HFF infected cells are then harvested and added to each well of 96-well plates (3.5×10^4 cells in 100 μl DMEM supplemented with 2% FBS) which contain test compound or the reference standard drug control (in 100 μl DMEM supplemented with 2% FBS per well). These cells are incubated for three days at 37° C. in 5% CO2, then fixed for ELISA assay. The primary antibody is murine anti-VZV glycoprotein II monoclonal antibody (Applied Biosystems, Inc. #13-145-100) and the secondary antibody is goat anti-mouse IgG linked to β-galactosidase. Thus the extent of viral replication is determined by assessing β-galactosidase activity by quantifying the generation of the 4-methyl umbelliferone fluorescent cleavage product after addition of the methyl umbelliferyl-β-D-galactoside (Sigma #M1633) substrate on a microfluorimeter (365 nm for excitation and 450 nm for emission). Antiviral activity (IC50) of the test compound is determined by comparing the flourescence obtained in absence of compound to that obtained in the presence of compound.

HCMV wild-type = experiment: HCMV yield assay; assay type: cell-based, human cytomegalovirus; details: human foreskin fibroblasts; for IC50: Human betaherpesvirus 5, Fibroblast, read-out: IC50 Ug/ml HCMV
Description: Yield assay. Monolayer cultures of human foreskin fibroblasts are infected with HCMV wild-type, typically at a multiplicity of infection equal to 0.2, in the presence of inhibitor compound (varying concentrations). At three days post-infection, total virus produced in these cultures (i.e. virus yield) is assessed by harvesting and titering the virus in 12-well plates of cultured human foreskin fibroblasts (done in the absence of inhibitor). Plaques are quantified at 2 weeks post-infection. An inhibitor of HCMV is identified by the reduction in titer of virus yield in the presence, compared to the titer in the absence of compound. In this assay, the relative anti-HCMV activity of an inhibitor is typically determined by calculating the IC50 or IC90 value, that is, the amount of compound required to reduce the virus yield by 50% or 90%, respectively. Table I describes IC50 data for compounds tested against HCMV.

Compound | IC50 (HSV-1) | IC50 (VZV strain Ellen) | inhibition at 10 µg/mL (VZV strain Ellen) | IC50 (HCMV wild-type) | IC50 Ug/ml HSV (HSV-1) | % inhibition 10 ug/ml VZV (VZV strain Ellen; 10 ug/ml) | IC50 Ug/ml VZV (VZV strain Ellen) | IC50 Ug/ml HCMV (HCMV wild-type)
COc1cc(OC)c(NC(=S)Nc2ccc(N(C)C(C)=O)cc2)cc1Cl [Example 99, N-{4-[3-(5-Chloro-2,4-dimethoxy-phenyl)-thioureido]-phenyl}-N-methyl-acetamide] | 50 µg/mL (≈ 127 µM) | > 10 µg/mL | 2% | > 50 µg/mL | – | – | – | –
COc1cc(OC)c(NC(=S)Nc2cccc(NC(C)=O)c2)cc1Cl [Example 100, N-{3-[3-(5-Chloro-2,4-dimethoxy-phenyl)-thioureido]-phenyl}-acetamide] | 40 µg/mL (≈ 105 µM) | > 10 µg/mL | 19% | > 50 µg/mL | – | – | – | –
COc1ccc(NC(=S)Nc2ccc(NC(C)=O)cc2)c(OC)c1 [Example 103, N-{4-[3-(2,4-Dimethoxy-phenyl)-thioureido]-phenyl}-acetamide] | 25 µg/mL (≈ 72.4 µM) | > 10 µg/mL | 28% | > 50 µg/mL | – | – | – | –
COc1ccc(NC(=S)Nc2ccc(NC(C)=O)cc2)cc1 [Example 104, N-{4-[3-(4-Methoxy-phenyl)-thioureido]-phenyl}-acetamide] | > 50 µg/mL | > 10 µg/mL | 8% | > 50 µg/mL | – | – | – | –
COc1ccccc1NC(=S)Nc1ccc(NC(C)=O)cc1 [Example 105, N-{4-[3-(2-Methoxy-phenyl)-thioureido]-phenyl}-acetamide] | > 50 µg/mL | > 10 µg/mL | 32% | > 50 µg/mL | – | – | – | –
COc1ccc(NC(=S)Nc2ccc(NC(C)=O)cc2)cc1Cl [Example 106, N-{4-[3-(3-Chloro-4-methoxy-phenyl)-thioureido]-phenyl}-acetamide] | 3 µg/mL (≈ 8.58 µM) | > 10 µg/mL | 20% | 7 µg/mL (≈ 20 µM) | – | – | – | –
COc1ccc(Cl)cc1NC(=S)Nc1ccc(NC(C)=O)cc1 [Example 107, N-{4-[3-(5-Chloro-2-methoxy-phenyl)-thioureido]-phenyl}-acetamide] | > 50 µg/mL | > 10 µg/mL | 20% | > 50 µg/mL | – | – | – | –
CC(=O)Nc1ccc(NC(=S)Nc2cc(Cl)c(O)c(Cl)c2)cc1 [Example 108, N-{4-[3-(3,5-Dichloro-4-hydroxy-phenyl)-thioureido]-phenyl}-acetamide] | 50 µg/mL (≈ 135 µM) | > 10 µg/mL | 28% | > 50 µg/mL | – | – | – | –
COc1c(Cl)cc(NC(=S)Nc2ccc(NC(C)=O)cc2)cc1Cl [Example 109, N-{4-[3-(3,5-Dichloro-4-methoxy-phenyl)-thioureido]-phenyl}-acetamide] | > 10 µg/mL | > 10 µg/mL | 27% | 0.4 µg/mL (≈ 1.04 µM) | – | – | – | –
COc1cc(NC(=S)Nc2ccc(NC(C)=O)cc2)c(OC)cc1Cl [Example 110, N-{4-[3-(4-Chloro-2,5-dimethoxy-phenyl)-thioureido]-phenyl}-acetamide] | 12 µg/mL (≈ 31.6 µM) | > 10 µg/mL | 25% | 30 µg/mL (≈ 79 µM) | – | – | – | –
CC(=O)Nc1ccc(NC(=S)Nc2cc(C(F)(F)F)ccc2Cl)cc1 [Example 111, N-{4-[3-(2-Chloro-5-trifluoromethyl-phenyl)-thioureido]-phenyl}-acetamide] | 15 µg/mL (≈ 38.7 µM) | > 10 µg/mL | 51% | 12 µg/mL (≈ 30.9 µM) | – | – | – | –
CC(=O)Nc1ccc(NC(=S)Nc2ccc(Cl)c(C(F)(F)F)c2)cc1 [Example 112, N-{4-[3-(4-Chloro-3-trifluoromethyl-phenyl)-thioureido]-phenyl}-acetamide] | 5 µg/mL (≈ 12.9 µM) | > 10 µg/mL | 55% | 3 µg/mL (≈ 7.74 µM) | – | – | – | –
CC(=O)Nc1ccc(NC(=S)Nc2ccc(OC(=O)c3ccccc3)cc2O)cc1 [Example 113, Benzoic acid 4-[3-(4-acetylamino-phenyl)-thioureido]-3-hydroxy-phenylester] | 50 µg/mL (≈ 119 µM) | > 10 µg/mL | 39% | 45 µg/mL (≈ 107 µM) | – | – | – | –
CC(=O)Nc1ccc(NC(=S)Nc2cccc([N+](=O)[O-])c2)cc1 [Example 124, N-{4-[3-(3-Nitro-phenyl)-thioureido]-phenyl}-acetamide] | 50 µg/mL (≈ 151 µM) | > 10 µg/mL | 0% | 50 µg/mL (≈ 151 µM) | – | – | – | –
CC(=O)Nc1ccc(NC(=S)Nc2cc(Cl)ccc2O)cc1 [Example 126, N-{4-[3-(5-Chloro-2-hydroxy-phenyl)-thioureido]-phenyl}-acetamide] | 30 µg/mL (≈ 89.3 µM) | > 10 µg/mL | 23% | 20 µg/mL (≈ 59.6 µM) | – | – | – | –
CC(=O)Nc1ccc(NC(=S)Nc2cc(C)c(O)c(Cl)c2)cc1 [Example 128, N-{4-[3-(3-Chloro-4-hydroxy-5-methyl-phenyl)-thioureido]-phenyl}-acetamide] | 15 µg/mL (≈ 42.9 µM) | > 10 µg/mL | 35% | 15 µg/mL (≈ 42.9 µM) | – | – | – | –
CC(=O)Nc1ccc(NC(=S)Nc2cc(Cl)c(O)c(Cl)c2C)cc1 [Example 129, N-{4-[3-(3,5-Dichloro-4-hydroxy-2-methyl-phenyl)-thioureido]-phenyl}-acetamide] | > 50 µg/mL | > 10 µg/mL | 29% | > 50 µg/mL | – | – | – | –
CC(=O)Nc1ccc(NC(=S)Nc2ccc(O)cc2O)cc1 [Example 130, N-{4-[3-(2,4-Dihydroxy-phenyl)-thioureido]-phenyl}-acetamide] | > 50 µg/mL | > 10 µg/mL | 30% | 30 µg/mL (≈ 94.5 µM) | – | – | – | –
COc1cc(OC)c(C(F)(F)F)cc1NC(=S)Nc1ccc(NC(C)=O)cc1 [Example 131, N-{4-[3-(2,4-Dimethoxy-5-trifluoromethyl-phenyl)-thioureido]-phenyl}-acetamide] | 15 µg/mL (≈ 36.3 µM) | > 10 µg/mL | 53% | < 50 µg/mL | – | – | – | –
COc1ccc(NC(=S)Nc2ccc(NC(C)=O)cc2)c(O)c1 [Example 132, N-{4-[3-(2-Hydroxy-4-methoxy-phenyl)-thioureido]-phenyl}-acetamide] | > 50 µg/mL | > 10 µg/mL | 11% | > 50 µg/mL | – | – | – | –
COc1cc(OC)c(NC(=S)Nc2ccc(NC(C)=O)cc2)cc1Br [Example 150, N-{4-[3-(5-Bromo-2,4-dimethoxy-phenyl)-thioureido]-phenyl}-acetamide] | 9 µg/mL (≈ 21.2 µM) | > 10 µg/mL | 3% | 40 µg/mL (≈ 94.3 µM) | – | – | – | –
COc1cc(NC(=S)Nc2ccc(NC(C)=O)cc2)cc(OC)c1OC [Example 151, N-{4-[3-(3,4,5-Trimethoxy-phenyl)-thioureido]-phenyl}-acetamide] | > 50 µg/mL | > 10 µg/mL | 0% | 40 µg/mL (≈ 107 µM) | – | – | – | –
COc1c(NC(=S)Nc2ccc(NC(C)=O)cc2)cc(Cl)c(C)c1Cl [Example 152, N-{4-[3-(3,5-Dichloro-2-methoxy-4-methyl-phenyl)-thioureido]-phenyl}-acetamide] | – | – | – | – | 2 Ug/ml | 70% | 7.5 Ug/ml | 0.8 Ug/ml
CC(NC(=S)Nc1ccc(NC(=O)Cc2ccccc2)cc1)c1ccc(F)cc1 (stereo not shown) [Example 751, N-(4-{3-[1-(4-Fluoro-phenyl)-ethyl]-thioureido}-phenyl)-2-phenyl-acetamide] | > 10 µg/mL | – | – | > 0.5 µg/mL | – | – | – | –
CCC(=O)Nc1ccc(NC(=S)NC(C)c2ccc(F)cc2)cc1 (stereo not shown) [Example 813, N-(4-{3-[1-(4-Fluoro-phenyl)-ethyl]-thioureido}-phenyl)-propionamide] | – | 3.5 µg/mL (≈ 10.1 µM) | – | – | – | – | – | –
N-(4-{3-[1-(4-Fluoro-phenyl)-ethyl]-thioureido}-phenyl)-acetamide [Example 744] | – | – | – | – | >10 Ug/ml | – | – | >0.5 Ug/ml
